In patent US9586963B2 (GENFIT, priority 2011, dated 2017):

Columns and labels:
Rev-Erb alpha = target: T1, Rev-Erb alpha (Homo sapiens, UniProt P20393); test: M2H (mammalian two-hybrid) cellular activation assay of Rev-Erb alpha; assay type: cell-based; settings: M2H assay, HEK293 cells; for EC50: Gal4-Rev-Erb alpha / VP16-NCoR, luciferase reporter; for Emax: relative to DMSO, at the tested dose, read-out: TOP activation
T1 sequence (P20393 284-614 limits assumed): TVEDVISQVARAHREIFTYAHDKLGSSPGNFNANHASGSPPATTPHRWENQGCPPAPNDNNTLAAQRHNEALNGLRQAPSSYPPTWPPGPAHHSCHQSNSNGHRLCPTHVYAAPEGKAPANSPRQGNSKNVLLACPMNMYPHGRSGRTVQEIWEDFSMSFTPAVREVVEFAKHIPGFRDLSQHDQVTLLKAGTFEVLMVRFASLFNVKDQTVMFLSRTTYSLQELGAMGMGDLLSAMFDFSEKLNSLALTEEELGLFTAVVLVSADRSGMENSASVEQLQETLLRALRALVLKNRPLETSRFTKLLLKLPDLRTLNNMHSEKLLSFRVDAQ
How it was run: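 Six-point dose-response, 18 h, 37 °C, serum-free, in HEK293 cells carrying a Gal4-RE luciferase reporter with Gal4-Rev-Erb alpha or beta plus VP16-NCoR (corepressor interaction readout). EC50 and TOP activation (%) derived from luminescence across four experiments.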

| EC50 (Rev-Erb alpha) | melting point | Emax (Rev-Erb alpha) | SMILES |
| --- | --- | --- | --- |
| < 100 nM | 175 to 177 °C | – | FC(F)(F)c1ccc(-c2cccnc2)c(Oc2nn3c(Cl)nnc3c3ccccc23)c1 [Cpd.5-15, 3-chloro-6-(2-(pyridin-3-yl)-5-(trifluoromethyl)phenoxy)-[1,2,4]triazolo[3,4-a]phthalazine] |
| 1000 to 6000 nM | 156 to 158 °C | – | COc1ncccc1-c1ccc(C(F)(F)F)cc1Oc1cc(C)c2nnc(Cl)n2n1 [Cpd.5-23, 3-chloro-6-(2-(2-methoxypyridin-3-yl)-5-(trifluoromethyl)phenoxy)-8-methyl-[1,2,4]triazolo[4,3-b]pyridazine] |
| 1000 to 6000 nM | 176 to 178 °C | – | COc1ncccc1-c1ccc(C(F)(F)F)cc1Oc1nn2c(Cl)nnc2cc1C [Cpd.5-24, 3-chloro-7-methyl-6-((2-(2-methoxypyridin-3-yl))-5-(trifluoromethyl)phenoxy)-[1,2,4]triazolo[4,3-b]pyridazine] |
| 1000 to 6000 nM | 194 to 196 °C | – | COc1ncc(C(F)(F)F)cc1-c1ccc(C(F)(F)F)cc1Oc1nn2c(Cl)nnc2cc1C [Cpd.5-26, 3-chloro-7-methyl-6-((2-(2-methoxy-5-(trifluoromethyl)pyridin-3-yl))-5-(trifluoromethyl)phenoxy)-[1,2,4]triazolo[4,3-b]pyridazine] |
| 1000 to 6000 nM | 117 to 119 °C | – | COc1ncc(C)cc1-c1ccc(C(F)(F)F)cc1Oc1cc(C)c2nnc(Cl)n2n1 [Cpd.5-27, 3-chloro-8-methyl-6-((2-(2-methoxy-5-methylpyridin-3-yl))-5-(trifluoromethyl)phenoxy)-[1,2,4]triazolo[4,3-b]pyridazine] |
| > 6000 nM | 151 to 153 °C | > 130% | Cc1cc(Oc2cc(C(F)(F)F)ccc2-c2cccnc2)nn2c(C(F)(F)F)nnc12 [Cpd.5-32, 8-methyl-6-(2-(pyridin-3-yl)-5-(trifluoromethyl)phenoxy)-3-(trifluoromethyl)-[1,2,4]triazolo[4,3-b]pyridazine] |
| 1000 to 6000 nM | 173 to 175 °C | – | Cc1cc2nnc(C(F)(F)F)n2nc1Oc1cc(C(F)(F)F)ccc1-c1cccnc1 [Cpd.5-33, 7-methyl-6-(2-(pyridin-3-yl)-5-(trifluoromethyl)phenoxy)-3-(trifluoromethyl)-[1,2,4]triazolo[4,3-b]pyridazine] |
| 1000 to 6000 nM | 200 to 202 °C | – | Cc1ncc(-c2ccc(C(F)(F)F)cc2Oc2cc(C)c3nnc(Cl)n3n2)cn1 [Cpd.5-37, 3-chloro-8-methyl-6-((2-(2-methylpyrimidin-5-yl))-5-(trifluoromethyl)phenoxy)-[1,2,4]triazolo[4,3-b]pyridazine] |
| 1000 to 6000 nM | 139 to 141 °C | – | COc1nccc(C)c1-c1ccc(C(F)(F)F)cc1Oc1cc(C)c2nnc(Cl)n2n1 [Cpd.5-39, 3-chloro-8-methyl-6-((2-(2-methoxy-4-methylpyridin-3-yl))-5-(trifluoromethyl)phenoxy)-[1,2,4]triazolo[4,3-b]pyridazine] |
| 1000 to 6000 nM | 161 to 162 °C | – | COc1nccc(C)c1-c1ccc(C(F)(F)F)cc1Oc1nn2c(Cl)nnc2cc1C [Cpd.5-40, 3-chloro-7-methyl-6-((2-(2-methoxy-4-methylpyridin-3-yl))-5-(trifluoromethyl)phenoxy)-[1,2,4]triazolo[4,3-b]pyridazine] |
| 100 to 1000 nM | 163 to 166 °C | – | COc1ncc(F)cc1-c1ccc(C(F)(F)F)cc1Oc1nn2c(Cl)nnc2cc1C [Cpd.5-41, 3-chloro-7-methyl-6-((2-(2-methoxy-5-fluoropyridin-3-yl))-5-(trifluoromethyl)phenoxy)-[1,2,4]triazolo[4,3-b]pyridazine] |
| 1000 to 6000 nM | 149 to 150 °C | – | CCc1nnc2cc(C)c(Oc3cc(C(F)(F)F)ccc3-c3cncnc3)nn12 [Cpd.5-43, 3-ethyl-7-methyl-6-(2-(pyrimidin-5-yl)-5-(trifluoromethyl)phenoxy)-[1,2,4]triazolo[4,3-b]pyridazine] |
| > 6000 nM | 179 to 181 °C | > 130% | Cc1cc2nncn2nc1Oc1cc(C(F)(F)F)ccc1-c1cncnc1 [Cpd.5-44, 7-methyl-6-(2-(pyrimidin-5-yl)-5-(trifluoromethyl)phenoxy)-[1,2,4]triazolo[4,3-b]pyridazine] |
| > 6000 nM | 230 to 234 °C | > 130% | Cc1cc(Oc2cc(C(F)(F)F)ccc2-c2cncnc2)nn2cnnc12 [Cpd.5-46, 8-methyl-6-(2-(pyrimidin-5-yl)-5-(trifluoromethyl)phenoxy)-[1,2,4]triazolo[4,3-b]pyridazine] |
| 1000 to 6000 nM | 182 to 184 °C | – | CCc1nnc2c(C)cc(Oc3cc(C(F)(F)F)ccc3-c3cncnc3)nn12 [Cpd.5-48, 3-ethyl-8-methyl-6-(2-(pyrimidin-5-yl)-5-(trifluoromethyl)phenoxy)-[1,2,4]triazolo[4,3-b]pyridazine] |
| 1000 to 6000 nM | 174 to 176 °C | – | CCc1nnc2cc(C)c(Oc3cc(C(F)(F)F)ccc3-c3cccnc3)nn12 [Cpd.5-49, 3-ethyl-7-methyl-6-(2-(pyridin-3-yl)-5-(trifluoromethyl)phenoxy)-[1,2,4]triazolo[4,3-b]pyridazine] |
| > 6000 nM | 240 °C | > 130% | COc1ncc(-c2ccc(C(F)(F)F)cc2Oc2nn3c(Cl)nnc3c3ccccc23)c(OC)n1 [Cpd.5-54, 3-chloro-6-(2-(2,4-dimethoxypyrimidin-5-yl)-5-(trifluoromethyl)phenoxy)-[1,2,4]triazolo[3,4-a]phthalazine] |
| 1000 to 6000 nM | 170 to 172 °C | – | COc1ncc(-c2cc(Cl)ccc2Oc2cc(C)c3nnc(Cl)n3n2)cn1 [Cpd.5-55, 3-chloro-6-(4-chloro-2-(2-methoxypyrimidin-5-yl)phenoxy)-8-methyl-[1,2,4]triazolo[4,3-b]pyridazine] |
| 1000 to 6000 nM | 189 to 192 °C | – | COc1ncc(-c2cc(Cl)ccc2Oc2nn3c(Cl)nnc3cc2C)cn1 [Cpd.5-56, 3-chloro-6-(4-chloro-2-(2-methoxypyrimidin-5-yl)phenoxy)-7-methyl-[1,2,4]triazolo[4,3-b]pyridazine] |
| 100 to 1000 nM | 213 to 215 °C | – | COc1ncc(-c2cc(Cl)ccc2Oc2nn3c(Cl)nnc3c3ccccc23)cn1 [Cpd.5-57, 3-chloro-6-(4-chloro-2-(2-methoxypyrimidin-5-yl)phenoxy)-[1,2,4]triazolo[3,4-a]phthalazine] |
| 1000 to 6000 nM | 208 to 210 °C | – | Cc1cc(Oc2ccc(Cl)cc2-c2cncnc2)nn2c(Cl)nnc12 [Cpd.5-58, 3-chloro-6-(4-chloro-2-(pyrimidin-5-yl)phenoxy)-8-methyl-[1,2,4]triazolo[4,3-b]pyridazine] |
| > 6000 nM | 224 to 226 °C | > 130% | Cc1cc2nnc(Cl)n2nc1Oc1ccc(Cl)cc1-c1cncnc1 [Cpd.5-59, 3-chloro-6-(4-chloro-2-(pyrimidin-5-yl)phenoxy)-7-methyl-[1,2,4]triazolo[4,3-b]pyridazine] |
| 100 to 1000 nM | 252 to 253 °C | – | Clc1ccc(Oc2nn3c(Cl)nnc3c3ccccc23)c(-c2cncnc2)c1 [Cpd.5-60, 3-chloro-6-(4-chloro-2-(pyrimidin-5-yl)phenoxy)-[1,2,4]triazolo[3,4-a]phthalazine] |
| 1000 to 6000 nM | 174 to 179 °C | – | Cc1cc2nnc(C(F)(F)F)n2nc1Oc1cc(C(F)(F)F)ccc1-c1cncnc1 [Cpd.5-61, 7-methyl-6-(2-(pyrimidin-5-yl)-5-(trifluoromethyl)phenoxy)-3-(trifluoromethyl)-[1,2,4]triazolo[4,3-b]pyridazine] |
| 1000 to 6000 nM | 197 to 200 °C | – | FC(F)(F)c1ccc(-c2cncnc2)c(Oc2nn3c(C(F)(F)F)nnc3c3ccccc23)c1 [Cpd.5-62, 6-(2-(pyrimidin-5-yl)-5-(trifluoromethyl)phenoxy)-3-(trifluoromethyl)-[1,2,4]triazolo[3,4-a]phthalazine] |
| 1000 to 6000 nM | 167 to 172 °C | – | Cc1cc(Oc2cc(C(F)(F)F)ccc2-c2cncnc2)nn2c(C(F)(F)F)nnc12 [Cpd.5-63, 8-methyl-6-(2-(pyrimidin-5-yl)-5-(trifluoromethyl)phenoxy)-3-(trifluoromethyl)-[1,2,4]triazolo[4,3-b]pyridazine] |
| 1000 to 6000 nM | 220 to 230 °C | – | FC(F)(F)c1ccc(-c2cncnc2)c(Oc2nn3cnnc3c3ccccc23)c1 [Cpd.5-64, 6-(2-(pyrimidin-5-yl)-5-(trifluoromethyl)phenoxy)-[1,2,4]triazolo[3,4-a]phthalazine] |
